# Reference: ChEMBL document CHEMBL4765347, “Radiomodulatory effect of a non-electrophilic NQO1 inducer identified in a screen of new 6, 8-diiodoquinazolin-4(3H)-ones carrying a sulfonamide moiety” (Eur J Med Chem, 2020)
# Tested on: Nrf2 (Mus musculus)
# Experiment: Activation of Nrf2 in mouse Hepa1c1c7 cells assessed as increase in NQO1 activity using menadione as substrate incubated for 20 mins followed by substrate addition and measured after 30 mins by spectrophotometry
# Conditions: filed as activator, time 50.0 min
Activity,CD [µM],Structure (SMILES)
Dose-dependent effect,50,Cc1cccc([N+](=O)[O-])c1NC(=O)CSc1nc2c(I)cc(I)cc2c(=O)n1-c1ccc(S(N)(=O)=O)cc1

# Tested on: Nrf2 (Mus musculus)
# Experiment: Activation of Nrf2 in mouse Hepa1c1c7 cells assessed as increase in NQO1 activity at 5 uM using menadione as substrate incubated for 20 mins followed by substrate addition and measured after 30 mins by spectrophotometry relative to control
# Conditions: filed as activator, time 50.0 min
row,T/C,Structure (SMILES)
1,1.08,NS(=O)(=O)c1ccc(-n2c(SCC(=O)Nc3ccc([N+](=O)[O-])cc3[N+](=O)[O-])nc3c(I)cc(I)cc3c2=O)cc1
2,1.01,CCc1ccccc1NC(=O)CSc1nc2c(I)cc(I)cc2c(=O)n1-c1ccc(S(N)(=O)=O)cc1
3,1.06,Cc1cc([N+](=O)[O-])ccc1NC(=O)CSc1nc2c(I)cc(I)cc2c(=O)n1-c1ccc(S(N)(=O)=O)cc1
4,1.04,CCc1cccc(NC(=O)CSc2nc3c(I)cc(I)cc3c(=O)n2-c2ccc(S(N)(=O)=O)cc2)c1
5,1,CCOc1ccc(NC(=O)CSc2nc3c(I)cc(I)cc3c(=O)n2-c2ccc(S(N)(=O)=O)cc2)cc1

# Tested on: Nrf2 (Mus musculus)
# Experiment: Activation of Nrf2 in mouse Hepa1c1c7 cells assessed as increase in NQO1 activity at 10 uM using menadione as substrate incubated for 20 mins followed by substrate addition and measured after 30 mins by spectrophotometry relative to control
# Conditions: filed as activator, time 50.0 min
row,T/C,Structure (SMILES)
1,1.2,NS(=O)(=O)c1ccc(-n2c(SCC(=O)Nc3ccc([N+](=O)[O-])cc3[N+](=O)[O-])nc3c(I)cc(I)cc3c2=O)cc1
2,1.01,CCc1ccccc1NC(=O)CSc1nc2c(I)cc(I)cc2c(=O)n1-c1ccc(S(N)(=O)=O)cc1
3,1.28,Cc1cc([N+](=O)[O-])ccc1NC(=O)CSc1nc2c(I)cc(I)cc2c(=O)n1-c1ccc(S(N)(=O)=O)cc1
4,1.09,CCc1cccc(NC(=O)CSc2nc3c(I)cc(I)cc3c(=O)n2-c2ccc(S(N)(=O)=O)cc2)c1
5,0.99,CCOc1ccc(NC(=O)CSc2nc3c(I)cc(I)cc3c(=O)n2-c2ccc(S(N)(=O)=O)cc2)cc1

# Tested on: Nrf2 (Mus musculus)
# Experiment: Activation of Nrf2 in mouse Hepa1c1c7 cells assessed as increase in NQO1 activity at 20 uM using menadione as substrate incubated for 20 mins followed by substrate addition and measured after 30 mins by spectrophotometry relative to control
# Conditions: filed as activator, time 50.0 min
row,T/C,Structure (SMILES)
1,1.36,NS(=O)(=O)c1ccc(-n2c(SCC(=O)Nc3ccc([N+](=O)[O-])cc3[N+](=O)[O-])nc3c(I)cc(I)cc3c2=O)cc1
2,1.01,CCc1ccccc1NC(=O)CSc1nc2c(I)cc(I)cc2c(=O)n1-c1ccc(S(N)(=O)=O)cc1
3,1.53,Cc1cc([N+](=O)[O-])ccc1NC(=O)CSc1nc2c(I)cc(I)cc2c(=O)n1-c1ccc(S(N)(=O)=O)cc1
4,1.15,CCc1cccc(NC(=O)CSc2nc3c(I)cc(I)cc3c(=O)n2-c2ccc(S(N)(=O)=O)cc2)c1
5,1.09,CCOc1ccc(NC(=O)CSc2nc3c(I)cc(I)cc3c(=O)n2-c2ccc(S(N)(=O)=O)cc2)cc1

# Target: Nuclear factor erythroid 2-related factor 2 (Mus musculus) (UniProt Q60795)
# Experiment: Activation of Nrf2 in mouse Hepa1c1c7 cells assessed as increase in NQO1 activity at 25 uM using menadione as substrate incubated for 20 mins followed by substrate addition and measured after 30 mins by spectrophotometry relative to control
# Conditions: filed as activator, time 50.0 min
# Nuclear factor erythroid 2-related factor 2 (Mus musculus), sequence (Q60795 whole entry, looked up): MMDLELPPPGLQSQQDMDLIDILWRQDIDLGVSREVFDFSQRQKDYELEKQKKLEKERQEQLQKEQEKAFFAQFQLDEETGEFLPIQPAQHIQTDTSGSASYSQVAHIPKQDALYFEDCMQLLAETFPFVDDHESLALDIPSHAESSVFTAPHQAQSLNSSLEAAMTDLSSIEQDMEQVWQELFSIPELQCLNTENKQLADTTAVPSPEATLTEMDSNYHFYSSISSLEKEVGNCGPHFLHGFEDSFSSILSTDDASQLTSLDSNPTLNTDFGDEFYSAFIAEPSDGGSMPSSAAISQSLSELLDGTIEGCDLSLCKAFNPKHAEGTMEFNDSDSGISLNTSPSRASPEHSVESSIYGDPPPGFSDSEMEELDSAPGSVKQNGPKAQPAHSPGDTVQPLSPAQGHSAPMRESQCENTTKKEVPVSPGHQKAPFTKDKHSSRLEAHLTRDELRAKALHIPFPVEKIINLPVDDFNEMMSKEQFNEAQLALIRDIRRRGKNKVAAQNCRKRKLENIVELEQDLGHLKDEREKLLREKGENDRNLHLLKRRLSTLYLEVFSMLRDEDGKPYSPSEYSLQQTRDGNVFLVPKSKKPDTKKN
row,T/C,Structure (SMILES)
1,1.08,Cc1ccc(NC(=O)CSc2nc3c(I)cc(I)cc3c(=O)n2-c2ccc(S(N)(=O)=O)cc2)cc1
2,1.34,Cc1cccc([N+](=O)[O-])c1NC(=O)CSc1nc2c(I)cc(I)cc2c(=O)n1-c1ccc(S(N)(=O)=O)cc1

# Target: Nuclear factor erythroid 2-related factor 2 (Mus musculus) (UniProt Q60795)
# Experiment: Activation of Nrf2 in mouse Hepa1c1c7 cells assessed as increase in NQO1 activity at 40 uM using menadione as substrate incubated for 20 mins followed by substrate addition and measured after 30 mins by spectrophotometry relative to control
# Conditions: filed as activator, time 50.0 min
row,T/C,Structure (SMILES)
1,1.68,NS(=O)(=O)c1ccc(-n2c(SCC(=O)Nc3ccc([N+](=O)[O-])cc3[N+](=O)[O-])nc3c(I)cc(I)cc3c2=O)cc1
2,1.05,CCc1ccccc1NC(=O)CSc1nc2c(I)cc(I)cc2c(=O)n1-c1ccc(S(N)(=O)=O)cc1
3,1.3,CCc1cccc(NC(=O)CSc2nc3c(I)cc(I)cc3c(=O)n2-c2ccc(S(N)(=O)=O)cc2)c1
4,1.16,CCOc1ccc(NC(=O)CSc2nc3c(I)cc(I)cc3c(=O)n2-c2ccc(S(N)(=O)=O)cc2)cc1

# Target: Nuclear factor erythroid 2-related factor 2 (Mus musculus) (UniProt Q60795)
# Experiment: Activation of Nrf2 in mouse Hepa1c1c7 cells assessed as increase in NQO1 activity at 50 uM using menadione as substrate incubated for 20 mins followed by substrate addition and measured after 30 mins by spectrophotometry relative to control
# Conditions: filed as activator, time 50.0 min
row,T/C,Structure (SMILES)
1,1.13,Cc1ccc(NC(=O)CSc2nc3c(I)cc(I)cc3c(=O)n2-c2ccc(S(N)(=O)=O)cc2)cc1
2,1.94,Cc1cccc([N+](=O)[O-])c1NC(=O)CSc1nc2c(I)cc(I)cc2c(=O)n1-c1ccc(S(N)(=O)=O)cc1

# Tested on: Nrf2 (Mus musculus)
# Experiment: Activation of Nrf2 in mouse Hepa1c1c7 cells assessed as increase in NQO1 activity at 0.4 uM using menadione as substrate incubated for 20 mins followed by substrate addition and measured after 30 mins by spectrophotometry relative to control
# Conditions: filed as activator, time 50.0 min
row,T/C,Structure (SMILES)
1,1.01,Cc1ccc(NC(=O)CSc2nc3c(I)cc(I)cc3c(=O)n2-c2ccc(S(N)(=O)=O)cc2)cc1
2,0.95,Cc1cccc([N+](=O)[O-])c1NC(=O)CSc1nc2c(I)cc(I)cc2c(=O)n1-c1ccc(S(N)(=O)=O)cc1

# Tested on: Nrf2 (Mus musculus)
# Experiment: Activation of Nrf2 in mouse Hepa1c1c7 cells assessed as increase in NQO1 activity at 0.8 uM using menadione as substrate incubated for 20 mins followed by substrate addition and measured after 30 mins by spectrophotometry relative to control
# Conditions: filed as activator, time 50.0 min
row,T/C,Structure (SMILES)
1,0.99,Cc1ccc(NC(=O)CSc2nc3c(I)cc(I)cc3c(=O)n2-c2ccc(S(N)(=O)=O)cc2)cc1
2,0.93,Cc1cccc([N+](=O)[O-])c1NC(=O)CSc1nc2c(I)cc(I)cc2c(=O)n1-c1ccc(S(N)(=O)=O)cc1

# Tested on: Nrf2 (Mus musculus)
# Experiment: Activation of Nrf2 in mouse Hepa1c1c7 cells assessed as increase in NQO1 activity at 1.6 uM using menadione as substrate incubated for 20 mins followed by substrate addition and measured after 30 mins by spectrophotometry relative to control
# Conditions: filed as activator, time 50.0 min
row,T/C,Structure (SMILES)
1,0.99,Cc1ccc(NC(=O)CSc2nc3c(I)cc(I)cc3c(=O)n2-c2ccc(S(N)(=O)=O)cc2)cc1
2,0.89,Cc1cccc([N+](=O)[O-])c1NC(=O)CSc1nc2c(I)cc(I)cc2c(=O)n1-c1ccc(S(N)(=O)=O)cc1

# Tested on: Nrf2 (Mus musculus)
# Experiment: Activation of Nrf2 in mouse Hepa1c1c7 cells assessed as increase in NQO1 activity at 2.5 uM using menadione as substrate incubated for 20 mins followed by substrate addition and measured after 30 mins by spectrophotometry relative to control
# Conditions: filed as activator, time 50.0 min
row,T/C,Structure (SMILES)
1,1.04,NS(=O)(=O)c1ccc(-n2c(SCC(=O)Nc3ccc([N+](=O)[O-])cc3[N+](=O)[O-])nc3c(I)cc(I)cc3c2=O)cc1
2,0.97,CCc1ccccc1NC(=O)CSc1nc2c(I)cc(I)cc2c(=O)n1-c1ccc(S(N)(=O)=O)cc1
3,1,Cc1cc([N+](=O)[O-])ccc1NC(=O)CSc1nc2c(I)cc(I)cc2c(=O)n1-c1ccc(S(N)(=O)=O)cc1
4,1.04,CCc1cccc(NC(=O)CSc2nc3c(I)cc(I)cc3c(=O)n2-c2ccc(S(N)(=O)=O)cc2)c1
5,1.02,CCOc1ccc(NC(=O)CSc2nc3c(I)cc(I)cc3c(=O)n2-c2ccc(S(N)(=O)=O)cc2)cc1

# Tested on: Nrf2 (Mus musculus)
# Experiment: Activation of Nrf2 in mouse Hepa1c1c7 cells assessed as increase in NQO1 activity at 1.25 uM using menadione as substrate incubated for 20 mins followed by substrate addition and measured after 30 mins by spectrophotometry relative to control
# Conditions: filed as activator, time 50.0 min
row,T/C,Structure (SMILES)
1,1.03,NS(=O)(=O)c1ccc(-n2c(SCC(=O)Nc3ccc([N+](=O)[O-])cc3[N+](=O)[O-])nc3c(I)cc(I)cc3c2=O)cc1
2,0.99,CCc1ccccc1NC(=O)CSc1nc2c(I)cc(I)cc2c(=O)n1-c1ccc(S(N)(=O)=O)cc1
3,0.99,Cc1cc([N+](=O)[O-])ccc1NC(=O)CSc1nc2c(I)cc(I)cc2c(=O)n1-c1ccc(S(N)(=O)=O)cc1
4,1.05,CCc1cccc(NC(=O)CSc2nc3c(I)cc(I)cc3c(=O)n2-c2ccc(S(N)(=O)=O)cc2)c1
5,0.99,CCOc1ccc(NC(=O)CSc2nc3c(I)cc(I)cc3c(=O)n2-c2ccc(S(N)(=O)=O)cc2)cc1

# Target: Nuclear factor erythroid 2-related factor 2 (Mus musculus) (UniProt Q60795)
# Experiment: Activation of Nrf2 in mouse Hepa1c1c7 cells assessed as increase in NQO1 activity at 6.25 uM using menadione as substrate incubated for 20 mins followed by substrate addition and measured after 30 mins by spectrophotometry relative to control
# Conditions: filed as activator, time 50.0 min
row,T/C,Structure (SMILES)
1,0.99,Cc1ccc(NC(=O)CSc2nc3c(I)cc(I)cc3c(=O)n2-c2ccc(S(N)(=O)=O)cc2)cc1
2,0.91,Cc1cccc([N+](=O)[O-])c1NC(=O)CSc1nc2c(I)cc(I)cc2c(=O)n1-c1ccc(S(N)(=O)=O)cc1

# Target: Nuclear factor erythroid 2-related factor 2 (Mus musculus) (UniProt Q60795)
# Experiment: Activation of Nrf2 in mouse Hepa1c1c7 cells assessed as increase in NQO1 activity at 12.5 uM using menadione as substrate incubated for 20 mins followed by substrate addition and measured after 30 mins by spectrophotometry relative to control
# Conditions: filed as activator, time 50.0 min
row,T/C,Structure (SMILES)
1,1,Cc1ccc(NC(=O)CSc2nc3c(I)cc(I)cc3c(=O)n2-c2ccc(S(N)(=O)=O)cc2)cc1
2,1.05,Cc1cccc([N+](=O)[O-])c1NC(=O)CSc1nc2c(I)cc(I)cc2c(=O)n1-c1ccc(S(N)(=O)=O)cc1

# Tested on: Nrf2 (Mus musculus)
# Experiment: Activation of Nrf2 in mouse Hepa1c1c7 cells assessed as increase in NQO1 activity at 0.313 uM using menadione as substrate incubated for 20 mins followed by substrate addition and measured after 30 mins by spectrophotometry relative to control
# Conditions: filed as activator, time 50.0 min
row,T/C,Structure (SMILES)
1,1.01,NS(=O)(=O)c1ccc(-n2c(SCC(=O)Nc3ccc([N+](=O)[O-])cc3[N+](=O)[O-])nc3c(I)cc(I)cc3c2=O)cc1
2,0.99,CCc1ccccc1NC(=O)CSc1nc2c(I)cc(I)cc2c(=O)n1-c1ccc(S(N)(=O)=O)cc1
3,1.01,Cc1cc([N+](=O)[O-])ccc1NC(=O)CSc1nc2c(I)cc(I)cc2c(=O)n1-c1ccc(S(N)(=O)=O)cc1
4,1.03,CCc1cccc(NC(=O)CSc2nc3c(I)cc(I)cc3c(=O)n2-c2ccc(S(N)(=O)=O)cc2)c1
5,1.01,CCOc1ccc(NC(=O)CSc2nc3c(I)cc(I)cc3c(=O)n2-c2ccc(S(N)(=O)=O)cc2)cc1

# Tested on: Nrf2 (Mus musculus)
# Experiment: Activation of Nrf2 in mouse Hepa1c1c7 cells assessed as increase in NQO1 activity at 0.625 uM using menadione as substrate incubated for 20 mins followed by substrate addition and measured after 30 mins by spectrophotometry relative to control
# Conditions: filed as activator, time 50.0 min
row,T/C,Structure (SMILES)
1,1.04,NS(=O)(=O)c1ccc(-n2c(SCC(=O)Nc3ccc([N+](=O)[O-])cc3[N+](=O)[O-])nc3c(I)cc(I)cc3c2=O)cc1
2,0.97,CCc1ccccc1NC(=O)CSc1nc2c(I)cc(I)cc2c(=O)n1-c1ccc(S(N)(=O)=O)cc1
3,1.01,Cc1cc([N+](=O)[O-])ccc1NC(=O)CSc1nc2c(I)cc(I)cc2c(=O)n1-c1ccc(S(N)(=O)=O)cc1
4,1.02,CCc1cccc(NC(=O)CSc2nc3c(I)cc(I)cc3c(=O)n2-c2ccc(S(N)(=O)=O)cc2)c1
5,1.02,CCOc1ccc(NC(=O)CSc2nc3c(I)cc(I)cc3c(=O)n2-c2ccc(S(N)(=O)=O)cc2)cc1

# Tested on: Nrf2 (Mus musculus)
# Experiment: Activation of Nrf2 in mouse Hepa1c1c7 cells assessed as increase in NQO1 activity at 3.125 uM using menadione as substrate incubated for 20 mins followed by substrate addition and measured after 30 mins by spectrophotometry relative to control
# Conditions: filed as activator, time 50.0 min
row,T/C,Structure (SMILES)
1,0.97,Cc1ccc(NC(=O)CSc2nc3c(I)cc(I)cc3c(=O)n2-c2ccc(S(N)(=O)=O)cc2)cc1
2,0.83,Cc1cccc([N+](=O)[O-])c1NC(=O)CSc1nc2c(I)cc(I)cc2c(=O)n1-c1ccc(S(N)(=O)=O)cc1
